According to patent US20230058189A1, “QUINOLIN-4-ONE AND 4(1H)-CINNOLINONE COMPOUNDS AND METHODS OF USING SAME” (Frequency Therapeutics, Inc., priority 2019, published 2023):
In brackets after ≈: the same amount, converted by molar mass.

Columns and labels:
[1] = system: Lgr5+ cells (cochlear stem cells); assay: Lgr5+ assay: expansion of Lgr5-positive cochlear cells in 3D culture; format: cell-based, mouse; conditions: for % of Lgr5+ Positive Cells / Potency (Lgr5+ activity): 10 days culture with EGF, bFGF, IGF1, approximate values; for Potency (Lgr5+ activity): effective concentration for Lgr5+ expansion; for Lgr5 GFP+ progenitor cell proliferation (Lgr5 positive cell count) / enrichment of Lgr5 GFP+ cochlear progenitor cells (percent of Lgr5 positive cells): in a background of growth factors, compared to CHIR-99021 and its combinations (figures)
Excerpt: “Stem Cell Proliferation Assay” as used herein is an assay to determine the capacity for agent(s) to induce the creation of stem cells from a starting cell population. In an exemplary Stem Cell Proliferation Assay, the number of cells for an initial cell population is harvested from a Lgr5-GFP mouse such as a B6.129P2-Lgr5tm1(cre/ERT2)Cle/J mouse (also known as Lgr5-EGFP-IRES-creERT2 or Lgr5-GFP mouse, Jackson Lab Stock No: 008875) between the age of 3 to 7 days, by isolating the organ of Corti sensory epithelium and dissociating the epithelium into single cells. Approximately 5000 cells are entrapped in 40 μl of culture substrate (for example, Matrigel (Corning, Growth Factor Reduced)) and placed at the center of wells in a 24-well plate with 500 μl of an appropriate culture media, growth factors and agent being tested. Appropriate culture media and growth factors include Advanced DMEM/F12 with media supplements (1×N2, 1×B27, 2 mM Glutamax, 10 mM HEPES, 1 mM N-acetylcysteine, and 100 U/ml penicillin/100 μg/ml streptomycin) and growth factors (50 ng/ml EGF, 50 ng/ml bFGF, and 50 ng/ml IGF-1) as well as the agent(s) being assessed are added into each well. Cells are cultured for 10 days in a standard cell culture incubator at 37° C. and 5% CO2, with media change every 2 days. The number of Lgr5^+ cells is quantified by counting the number of cells identified as Lgr5+ in an in vitro Lgr5 activity assay (i.e., an assay mearing in vitro Lgr5 activity). The fraction of cells that are Lgr5^+ is quantified by dividing the number of cells identified as Lgr5^+ in a cell population by the total number of cells present in the cell population. The average Lgr5^+ activity of a population is quantified by measuring the average mRNA expression level of Lgr5 of the population normalized using suitable and unregulated references or housekeeping genes (e.g., Hprt). The number of hair cells in a population may be measured by staining with hair cell marker (e.g., MyosinVIIa), or using an endogenous reporter of hair cell genes (e.g., Pou4f3-GFP, Atoh1-nGFP) and analyzing using flow cytometry. The fraction of cells that are hair cells is quantified by dividing the number of cells identified as hair cells in a cell population by the total number of cells present in the cell population. Lgr5 activity can be measured by qPCR.
The compounds of the present disclosure were used in Lgr5-EGFP-IRES-Cre-ER mice (Barker et al., 2007) to analyze the effects of small molecules on cochlear stem cell expansion.
Isolation of stem cells from the inner ear: All animal studies were conducted under an approved institutional protocol according to National Institutes of Health guidelines. For experiments with neonatal mice (postnatal days 1-3), the cochleae were dissected in Hank's Balanced Salt Solution (HBSS) and the organs of Corti were separated from the stria vascularis and the modiolus. The organs of Corti were then treated with Cell Recovery Solution (Corning) for 1 hour to separate cochlear epithelium from the underlying mesenchyme. Epithelia were then collected and treated with TrypLE (Life Technologies) for 15-20 minutes at 37° C. Single cells obtained by mechanical trituration were filtered (40 μm) and suspended in Matrigel® (Corning) for 3D culture.
Cells were cultured in a 1:1 mixture of DMEM and F12, supplemented with Glutamax (GIBCO), N2, B27 (Invitrogen), EGF (50 ng/ml; Chemicon), bFGF (50 ng/ml; Chemicon), IGF1 (50 ng/ml; Chemicon) and the composition provided herein. Medium was changed every other day.
Lgr5-positive cells were quantified after 10 days (D10) in culture in multiple conditions. Cell colonies were dissociated into single cells using TrypLE (Gibco). The cells were then stained with propidium iodide (P1) and were analyzed using a flow cytometer for Lgr5-GFP expression. The number of GFP-positive cells and the percentage of GFP-positive cells were quantified. […]

[2] = Thermodynamic aqueous solubility at pH 7.4; format: physicochemical; conditions: aqueous buffer, thermodynamic from solid, phosphate buffer pH 7.4, 25° C., approximate values, read-out: Concentration (thermodynamic aqueous solubility)
Method: The aqueous thermodynamic solubilities of the compounds of the present disclosure were measured at pH 7.4.
Determining suitability for use of a compound, e.g., as a therapeutic agent can include determining the thermodynamic solubility of the compound. An example of this determination follows: Accurately weigh about 1 mg of the powder of each compound into a glass insert vial and phosphate buffer into each vial of a capless Solubility Sample plate with the volume of 1 mL per mg. Next, add one stir stick to each vial and seal with a molded PTDE/SIL 96-Well Plate Cover. Transfer the Solubility Sample plate to an Eppendorf Thermomixer Comfort plate shaker and shake the plate at 25° C. at 1,100 rpm for 24 hours. At the end of the incubation, open the cover and remove the stir sticks using a big magnet and transfer the samples from the Solubility Sample plate into the filter plate. Using the vacuum manifold, all the samples were filtered. An aliquot of 100 μL was transferred from filtrate to a new 96-well plate by addition of 900 μL of a mixture of H2O and acetonitrile containing an internal standard (1:1) (10 fold) and 10 μL of the diluted solution was pipetted into a new 96-well plate by addition of 990 μL of a mixture of H2O and acetonitrile containing internal standard (1:1) (1,000 fold). The dilution factor may be changed according to the solubility value and the LC/MS signal response.
To prepare standards for the assay, accurately weigh about 1 mg of the powder of each compound into a glass insert vial, add DMSO into each vial of the Standard Plate with the volume of 1 mL per mg to obtain the 1 mg/mL STD sample. Aliquots of 10 μL were taken from 1 mg/mL STD sample to a new 96-well plate followed by addition of 990 μL of a mixture of H2O and acetonitrile containing internal standard (1:1) to obtain 10 μg/mL STD and then 10 μL aliquots were taken from 10 μg/mL sample to a new 96-well plate followed by addition of 990 μL of a mixture of H2O and acetonitrile containing internal standard (1:1) to obtain 0.1 μg/mL STD. The concentration of the standard sample may be changed according to the LC/MS signal response.
The samples were analyzed and quantified against the standard of known concentration using LC/MS/MS. The solubility of the test compound was calculated as follows: [Sample]=Area Ratio sample×DF sample×[STD]/Area Ratio STD DF means the dilution factor. Any value of the compounds that is not within the specified limits was rejected and the experiment was repeated.

Compound	% of Lgr5+ Positive Cells [1] [%]	Potency (Lgr5+ activity) [1] [µM]	solubility thermodynamic at 24 h [2] [µM]	Lgr5 GFP+ progenitor cell proliferation (Lgr5 positive cell count) [1]	enrichment of Lgr5 GFP+ cochlear progenitor cells (percent of Lgr5 positive cells) [1]
CCn1cc(C(=O)O)c(=O)c2c(N)cc(NCCCc3ccccc3)cc21 [Compound I-57]	1	30	< 0.03	–	–
CCn1cc(C#N)c(=O)c2c(N)c(F)c(NCCN[C@@H]3C[C@H]3c3ccccc3)cc21 (relative stereo) [Compound I-84]	9	1.1	49 (≈ 19.9 µg/mL)	–	–
CCn1cc(C(=O)O)c(=O)c2c(N)c(F)c(N[C@H]3C[C@H](c4ccccc4)C3)cc21 [Compound I-60]	30	0.37	< 10	–	–
CCn1cc(C(=O)O)c(=O)c2c(N)c(F)c(NC3CC3)cc21 [Compound I-15]	30	3.3	2.4 (≈ 0.733 µg/mL)	–	–
CCCn1cc(C(=O)O)c(=O)c2c(N)c(F)c(NCCN[C@@H]3C[C@H]3c3ccccc3)cc21 (relative stereo) [Compound I-87]	52	3.3	8 (≈ 3.51 µg/mL)	–	–
CCn1cc(C(=O)O)c(=O)c2c(N)c(F)c(NC3CC(N[C@@H]4C[C@H]4c4ccccc4)C3)cc21 (relative stereo) [Compound I-70]	30	3.3	1.6 (≈ 0.721 µg/mL)	–	–
CCn1cc(C(=O)O)c(=O)c2c(N)c(F)c(NC3CCOCC3)cc21 [Compound I-8]	21	3.3	35 (≈ 12.2 µg/mL)	–	–
CCn1cc(C(N)=O)c(=O)c2c(N)c(F)c(NCCN[C@H]3C[C@@H]3c3ccccc3)cc21 (relative stereo) [Compound I-83]	12	1.1	9.6 (≈ 4.07 µg/mL)	–	–
CCn1cc(C(=O)O)c(=O)c2c(N)c(F)c(NC3CCC3)cc21 [Compound I-12]	25	1.1	2.7 (≈ 0.862 µg/mL)	–	–
CCn1cc(C(=O)O)c(=O)c2c(N)c(F)c(NCCc3ccccc3)cc21 [Compound I-18]	31	1.1	0.12 (≈ 0.0443 µg/mL)	–	–
CCn1cc(C(=O)O)c(=O)c2c(N)c(F)c(NC3CN(c4ccccc4)C3)cc21 [Compound I-69]	25	1.1	< 0.03	–	–
CCn1cc(C(=O)O)c(=O)c2c(N)c(F)c(NCCN[C@@H]3C[C@]34CCc3ccccc34)cc21 (relative stereo) [Compound I-81]	65	10	1.2 (≈ 0.541 µg/mL)	–	–
CCn1cc(C(=O)O)c(=O)c2c(N)c(F)c(N[C@H]3CC[C@@H](N[C@@H]4C[C@H]4c4ccccc4)CC3)cc21 (relative stereo) [Compound I-28]	40	8	4 (≈ 1.91 µg/mL)	generates Lgr5 GFP+ progenitor cell proliferation	generates enrichment of Lgr5 GFP+ cochlear progenitor cells
CCn1cc(C(=O)O)c(=O)c2c(N)c(F)c(N[C@@H]3C[C@@H]3c3ccccc3)cc21 (relative stereo) [Compound I-23]	14	2.2	< 0.03	–	–
CCn1cc(C(=O)O)c(=O)c2c(N)c(F)c(N[C@H]3CC[C@H](N[C@@H]4C[C@H]4c4ccccc4)CC3)cc21 (relative stereo) [Compound I-27]	26	1.1	4.7 (≈ 2.25 µg/mL)	–	–
CCn1cc(C(=O)O)c(=O)c2c(N)c(F)c(NCCN[C@@H]3C[C@H]3c3ccccc3)cc21 (relative stereo) [Compound I-29]	38	4	1.93 (≈ 0.819 µg/mL)	generates Lgr5 GFP+ progenitor cell proliferation	generates enrichment of Lgr5 GFP+ cochlear progenitor cells
